Source: patent publication US12472140B2, “Composition and method for transdermal delivery of cannabidiol (CBD) and tetrahydrocannabinol (THC)” (Ovation Science Inc., priority 2020, dated 2025)

Columns and labels:
[1] = cited from earlier work
Solubility = details: polyvinylpyrrolidone polymers with C16, C20, C30 side chains
[2] = Six-hour Franz Cell study of skin penetration by CBD and THC; details: for penetration of CBD relative to THC: at 6 hours
[3] = oral doses of 15-20 mg; cited from earlier work
[4] = Release of CBD and THC from the composition, effect of adding surfactant; assay type: physicochemical; details: for ratio of release of CBD and THC: numerically THC/CBD
Description: Addition of surfactant can assist in release of CBD and THC from the composition.

[5] = Example 1, penetrant increased from 1% to 3%
[6] = Example 3, terpene penetrant increased from 1% to 3%

For `CCCCCc1cc(O)c2c(c1)OC(C)(C)[C@H]1CCC(C)=C[C@H]21` [THC, Δ^9-tetrahydrocannabinol], the “solubility in aqueous buffers” value [1] is listed as “sparingly soluble”, the “solubility in organic solvents” value [1] is listed as “readily soluble” and the “solubility in hydrophobic polymer delivery system / polymer complexes” value (Solubility) is listed as “readily soluble”. The penetration [2, 5] was 3.2%, the penetration [2, 6] was 3.2% and the “effect on cancer pain” value [3] was “decreased cancer pain comparable to 120 mg of codeine”. The “release from the composition” value ([4]; after addition of surfactant) was 21.7%, the “ratio of release of CBD and THC” value ([4]; after addition of surfactant) was 0.72 and the “release from the composition” value ([4]; before addition of surfactant) was 3%. For the same compound, the “ratio of release of CBD and THC” value ([4]; before addition of surfactant) was 0.7.

For `C=C(C)[C@@H]1CCC(C)=C[C@H]1c1c(O)cc(CCCCC)cc1O` [CBD, cannabidiol], the “solubility in aqueous buffers” value [1] is given as “sparingly soluble”, the “solubility in organic solvents” value [1] is given as “readily soluble” and the “solubility in hydrophobic polymer delivery system / polymer complexes” value (Solubility) is given as “readily soluble”. For the same compound, the “penetration of CBD relative to THC” value ([2]; Example 1, 1:1 CBD:THC formulation) was roughly 4 times, the penetration [2, 5] was 5.8% and the “penetration of CBD relative to THC” value ([2]; Example 3, 1:1 CBD:THC formulation) was roughly 2 times. For the same compound, the “actual (penetration) weight ratio of CBD:THC” value ([2]; Example 3, formulated weight ratio 1:1 CBD:THC) was 1.98, the penetration [2, 6] was 5.8% and the “release from the composition” value ([4]; after addition of surfactant) was 30.2%. The “release from the composition” value ([4]; before addition of surfactant) was 4.3%.
